Measurements published in ChEMBL document CHEMBL1201862, “PubChem BioAssay data set” (2004).
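A five-concentration, 48-hour dose response in 96-well plates underlies each endpoint, interpolated linearly between surrounding concentrations. At the GI50, growth is halved.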 Calls of active or inactive are those of the source. No stated cut-off is given here; in the data, active = GI50 up to about 1.1 µM and inactive = higher.

Tests used:
Assay in all cases: DTP human tumour cell line panel, 48 h
786-0 = system: 786-0
A498 = system: A498
A549 = system: A549
ACHN = system: ACHN
BT-549 = system: BT-549
CAKI-1 = system: CAKI-1
CCRF-CEM = system: CCRF-CEM
COLO 205 = system: COLO 205
EKVX = system: EKVX
HCC 2998 = system: HCC 2998
HCT-116 = system: HCT-116
HCT-15 = system: HCT-15
HL-60 = system: HL-60
HOP-62 = system: HOP-62
HOP-92 = system: HOP-92
HT-29 = system: HT-29
Hs-578T = system: Hs-578T
IGROV-1 = system: IGROV-1
K562 = system: K562
KM12 = system: KM12
LOX IMVI = system: LOX IMVI
M14 = system: M14
MCF7 = system: MCF7
MDA-MB-231 = system: MDA-MB-231
MDA-MB-435 = system: MDA-MB-435
MDA-N = system: MDA-N
MOLT-4 = system: MOLT-4
Malme-3M = system: Malme-3M
NCI-H226 = system: NCI-H226
NCI-H23 = system: NCI-H23
NCI-H460 = system: NCI-H460
NCI/ADR-RES = system: NCI/ADR-RES
OVCAR-3 = system: OVCAR-3
OVCAR-4 = system: OVCAR-4
OVCAR-5 = system: OVCAR-5
OVCAR-8 = system: OVCAR-8
PC-3 = system: PC-3
RXF 393 = system: RXF 393
SF-295 = system: SF-295
SF-539 = system: SF-539
SK-MEL-28 = system: SK-MEL-28
SK-MEL-2 = system: SK-MEL-2
SK-MEL-5 = system: SK-MEL-5
SK-OV-3 = system: SK-OV-3
SN12C = system: SN12C
SNB-19 = system: SNB-19
SNB-75 = system: SNB-75
SR = system: SR
SW-620 = system: SW-620
TK-10 = system: TK-10
U-251 = system: U-251
UACC-257 = system: UACC-257
UACC-62 = system: UACC-62
UO-31 = system: UO-31
DU-145 = system: DU-145
NCI-H522 = system: NCI-H522
RPMI-8226 = system: RPMI-8226
SF-268 = system: SF-268
T47D = system: T47D

In the case of `Cc1cc(/N=N/c2ccccc2C)ccc1N`, the GI50 (786-0) is reported as 10.5 µM (inactive), the GI50 (A498) is reported as 24.3 µM (inactive) and the GI50 (A549) is reported as 4.32 µM (inactive). The GI50 (ACHN) was 5.52 µM (inactive), the GI50 (BT-549) was 10.6 µM (inactive) and the GI50 (CAKI-1) was 15.3 µM (inactive). The GI50 (CCRF-CEM) was 1.42 µM (inactive), the GI50 (COLO 205) was 18.4 µM (inactive) and the GI50 (EKVX) was 15.5 µM (inactive). The GI50 (HCC 2998) was 12.4 µM (inactive), the GI50 (HCT-116) was 15.5 µM (inactive) and the GI50 (HCT-15) was 12.1 µM. For the same compound, the GI50 (HL-60) was 2.96 µM (inactive), the GI50 (HOP-62) was 5.6 µM (inactive) and the GI50 (HOP-92) was 10.5 µM (inactive). For the same compound, the GI50 (HT-29) was 17.3 µM (inactive), the GI50 (Hs-578T) was 15.7 µM (inactive) and the GI50 (IGROV-1) was 14.6 µM (inactive). The GI50 (K562) was 11.4 µM (inactive), the GI50 (KM12) was 10.6 µM (inactive) and the GI50 (LOX IMVI) was 11.4 µM (inactive). For the same compound, the GI50 (M14) was 12.4 µM (inactive), the GI50 (MCF7) was 4.06 µM (inactive) and the GI50 (MDA-MB-231) was 14.8 µM (inactive). For the same compound, the GI50 (MDA-MB-435) was 19.5 µM (inactive), the GI50 (MDA-N) was 18.5 µM (inactive) and the GI50 (MOLT-4) was 2.65 µM (inactive). For the same compound, the GI50 (Malme-3M) was 19 µM (inactive), the GI50 (NCI-H226) was 13.9 µM (inactive) and the GI50 (NCI-H23) was 3.99 µM (inactive). For the same compound, the GI50 (NCI-H460) was 3.19 µM (inactive), the GI50 (NCI/ADR-RES) was 11.1 µM (inactive) and the GI50 (OVCAR-3) was 7.35 µM (inactive). The GI50 (OVCAR-4) was 19.4 µM (inactive), the GI50 (OVCAR-5) was 17.9 µM (inactive) and the GI50 (OVCAR-8) was 15.2 µM (inactive). The GI50 (PC-3) was 11.1 µM (inactive), the GI50 (RXF 393) was 6.82 µM (inactive) and the GI50 (SF-295) was 11.5 µM (inactive). For the same compound, the GI50 (SF-539) was 2.54 µM (inactive), the GI50 (SK-MEL-28) was 21 µM (inactive) and the GI50 (SK-MEL-2) was 15.6 µM (inactive). For the same compound, the GI50 (SK-MEL-5) was 15.8 µM (inactive), the GI50 (SK-OV-3) was 24.8 µM (inactive) and the GI50 (SN12C) was 12.4 µM (inactive). For the same compound, the GI50 (SNB-19) was 31 µM (inactive), the GI50 (SNB-75) was 5.94 µM (inactive) and the GI50 (SR) was 12.7 µM (inactive). For the same compound, the GI50 (SW-620) was 19.6 µM (inactive), the GI50 (TK-10) was 19.6 µM (inactive) and the GI50 (U-251) was 14.3 µM (inactive). The GI50 (UACC-257) was 17.9 µM (inactive), the GI50 (UACC-62) was 12.5 µM (inactive) and the GI50 (UO-31) was 3.02 µM (inactive).

With `CC(C)(C)OC(=O)N(CCCCNC(=O)c1ccccc1)CCCNC(=O)c1ccccc1` the GI50 (786-0) was > 100 µM (inactive), the GI50 (A498) was > 100 µM (inactive) and the GI50 (A549) was > 100 µM (inactive). For the same compound, the GI50 (ACHN) was > 100 µM (inactive), the GI50 (BT-549) was > 100 µM (inactive) and the GI50 (CAKI-1) was > 100 µM (inactive). For the same compound, the GI50 (CCRF-CEM) was 72.1 µM (inactive), the GI50 (COLO 205) was > 100 µM (inactive) and the GI50 (DU-145) was > 100 µM (inactive). For the same compound, the GI50 (EKVX) was > 100 µM (inactive), the GI50 (HCC 2998) was > 100 µM (inactive) and the GI50 (HCT-116) was > 100 µM (inactive). For the same compound, the GI50 (HCT-15) was > 100 µM, the GI50 (HL-60) was 31.4 µM (inactive) and the GI50 (HOP-62) was > 100 µM (inactive). The GI50 (HOP-92) was > 100 µM (inactive), the GI50 (HT-29) was > 100 µM (inactive) and the GI50 (Hs-578T) was > 100 µM (inactive). The GI50 (IGROV-1) was > 100 µM (inactive), the GI50 (K562) was > 100 µM (inactive) and the GI50 (KM12) was > 100 µM (inactive). For the same compound, the GI50 (M14) was > 100 µM (inactive), the GI50 (MCF7) was > 100 µM (inactive) and the GI50 (MDA-MB-231) was > 100 µM (inactive). The GI50 (MDA-MB-435) was > 100 µM (inactive), the GI50 (MOLT-4) was 46.8 µM (inactive) and the GI50 (NCI-H226) was > 100 µM (inactive). The GI50 (NCI-H23) was > 100 µM (inactive), the GI50 (NCI-H460) was > 100 µM (inactive) and the GI50 (NCI-H522) was > 100 µM (inactive). The GI50 (NCI/ADR-RES) was 68.1 µM (inactive), the GI50 (OVCAR-3) was > 100 µM (inactive) and the GI50 (OVCAR-4) was > 100 µM (inactive). For the same compound, the GI50 (OVCAR-5) was > 100 µM (inactive), the GI50 (OVCAR-8) was > 100 µM (inactive) and the GI50 (PC-3) was 98.6 µM (inactive). The GI50 (RPMI-8226) was > 100 µM (inactive), the GI50 (RXF 393) was > 100 µM (inactive) and the GI50 (SF-268) was > 100 µM (inactive). The GI50 (SF-295) was > 100 µM (inactive), the GI50 (SF-539) was > 100 µM (inactive) and the GI50 (SK-MEL-28) was > 100 µM (inactive). The GI50 (SK-MEL-2) was > 100 µM (inactive), the GI50 (SK-MEL-5) was > 100 µM (inactive) and the GI50 (SK-OV-3) was > 100 µM (inactive). The GI50 (SN12C) was > 100 µM (inactive), the GI50 (SNB-19) was > 100 µM (inactive) and the GI50 (SNB-75) was > 100 µM (inactive). For the same compound, the GI50 (SR) was 49.3 µM (inactive), the GI50 (SW-620) was > 100 µM (inactive) and the GI50 (T47D) was 74.3 µM (inactive). For the same compound, the GI50 (TK-10) was > 100 µM (inactive), the GI50 (U-251) was > 100 µM (inactive) and the GI50 (UACC-257) was > 100 µM (inactive). The GI50 (UACC-62) was > 100 µM (inactive) and the GI50 (UO-31) was 90.6 µM (inactive).

For `ClCCN1CCOC1=C1C=CC=C1`, the GI50 (786-0) was > 100 µM (inactive), the GI50 (A498) was > 100 µM (inactive) and the GI50 (A549) was > 100 µM (inactive). The GI50 (ACHN) was > 100 µM (inactive), the GI50 (BT-549) was > 100 µM (inactive) and the GI50 (CAKI-1) was > 100 µM (inactive). The GI50 (CCRF-CEM) was 80.4 µM (inactive), the GI50 (COLO 205) was > 100 µM (inactive) and the GI50 (DU-145) was > 100 µM (inactive). For the same compound, the GI50 (EKVX) was > 100 µM (inactive), the GI50 (HCT-116) was > 100 µM (inactive) and the GI50 (HCT-15) was > 100 µM. The GI50 (HL-60) was 96.6 µM (inactive), the GI50 (HOP-62) was 43.9 µM (inactive) and the GI50 (HOP-92) was > 100 µM (inactive). The GI50 (HT-29) was > 100 µM (inactive), the GI50 (Hs-578T) was > 100 µM (inactive) and the GI50 (IGROV-1) was 14 µM (inactive). For the same compound, the GI50 (KM12) was 18.4 µM (inactive), the GI50 (LOX IMVI) was > 100 µM (inactive) and the GI50 (M14) was > 100 µM (inactive). For the same compound, the GI50 (MCF7) was > 100 µM (inactive), the GI50 (MDA-MB-231) was > 100 µM (inactive) and the GI50 (MDA-MB-435) was > 100 µM (inactive). The GI50 (MOLT-4) was 55.8 µM (inactive), the GI50 (NCI-H226) was > 100 µM (inactive) and the GI50 (NCI-H23) was > 100 µM (inactive). The GI50 (NCI-H460) was > 100 µM (inactive), the GI50 (NCI/ADR-RES) was > 100 µM (inactive) and the GI50 (OVCAR-3) was > 100 µM (inactive). For the same compound, the GI50 (OVCAR-5) was > 100 µM (inactive), the GI50 (OVCAR-8) was > 100 µM (inactive) and the GI50 (PC-3) was > 100 µM (inactive). For the same compound, the GI50 (RPMI-8226) was > 100 µM (inactive), the GI50 (SF-268) was > 100 µM (inactive) and the GI50 (SF-295) was > 100 µM (inactive). For the same compound, the GI50 (SF-539) was > 100 µM (inactive), the GI50 (SK-MEL-28) was > 100 µM (inactive) and the GI50 (SK-MEL-5) was > 100 µM (inactive). For the same compound, the GI50 (SK-OV-3) was > 100 µM (inactive), the GI50 (SN12C) was > 100 µM (inactive) and the GI50 (SNB-19) was > 100 µM (inactive). The GI50 (SNB-75) was > 100 µM (inactive), the GI50 (SR) was 19.3 µM (inactive) and the GI50 (SW-620) was > 100 µM (inactive). For the same compound, the GI50 (T47D) was > 100 µM (inactive), the GI50 (U-251) was > 100 µM (inactive) and the GI50 (UACC-257) was > 100 µM (inactive). The GI50 (UO-31) was > 100 µM (inactive).
